Target: T1, human GPR120 (Homo sapiens, UniProt Q5NUL3)
T1 construct: expressed in transfected cells; host or cells: CHOA12 cells
T1 sequence (Q5NUL3 1-361): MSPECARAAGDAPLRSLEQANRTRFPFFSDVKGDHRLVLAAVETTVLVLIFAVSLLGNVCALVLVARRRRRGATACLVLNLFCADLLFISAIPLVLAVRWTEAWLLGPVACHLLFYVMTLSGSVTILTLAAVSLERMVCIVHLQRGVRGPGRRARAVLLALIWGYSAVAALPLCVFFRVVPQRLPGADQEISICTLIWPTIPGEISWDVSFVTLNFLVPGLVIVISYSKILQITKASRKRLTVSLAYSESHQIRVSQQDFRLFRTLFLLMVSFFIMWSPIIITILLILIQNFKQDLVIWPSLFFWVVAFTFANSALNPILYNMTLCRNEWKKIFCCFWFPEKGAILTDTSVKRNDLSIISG
Assay: GPR120 pERK AlphaScreen SureFire assay (human)
Assay type: cell-based
Conditions: CHO cells stably transfected with short form of human GPR120
Excerpt: GPR120 activity was monitored by measuring phosphorylation of ERK (pERK), since G protein receptors are known to activate the ERK signaling cascade either directly and/or through recruitment of arrestin that serves as a scaffold for downstream signaling events.
GPR120 pERK AlphaScreen SureFire Assay
The human and mouse GPR120-mediated intracellular phosphorylated ERK assays were established using CHOA12 cells stably transfected with the short form of human or mouse GPR120 receptor. Cells were cultured in growth medium consisting of F-12 media (Invitrogen Cat. #11765) with 5% Charcoal/Dextran FBS (Invitrogen Cat. #12676-029), 500 μg/mL GENETICIN® (Life Technologies Cat. #10131-027) and 250 μg/mL Zeocin (Invitrogen Cat. #R250-01). Cells were cryo preserved at a concentration of 2×10^7 cells/mL, in 90% Charcoal/Dextran FBS and 10% DMSO, and frozen in liquid nitrogen at a low passage number.
For the pERK assay, 2×10^7 cells/mL cryopreserved human and mouse cells were thawed rapidly in a 37° C. water bath and added to a T-225 flask containing 50 mL growth medium. The flasks were placed in a tissue culture incubator overnight (37° C., 5% CO2). The next day, cells were harvested with trypsin (Gibco Cat. #25300-054), resuspended in serum-containing growth medium and counted using a Cellometer and volume adjusted to a concentration of 0.6×10^6cells/mL. Cells were plated into 384-well clear bottom tissue culture plates (BD Cat. #353962) at 50 μL/well, for a density of 30,000 cells/well using a MULTIDROP® and incubated for 16-18 hours (overnight) at 37° C. with 5% CO2. The next day, cells were serum starved in 30 μL of F-12 media without any serum or antibiotics for 2 hours at 37° C.
Test compounds were 3-fold, 11-point serially diluted in DMSO in a REMP assay plate (Matrix Cat. #4307) by Tecan and 5 μL was transferred into an ECHO source plate (LABCYTE® Cat. #LC-0200). Cells were then stimulated with 50 nL of compound dilutions using ECHO liquid handler for 7 minutes at 37° C. Compounds ranged from final assay concentrations of 33.33 μM to 0.56 nM.
The media was then dumped and cells lysed with 20 μL of 1× Lysis buffer from the AlphaScreen SureFire Phospho-ERK 1/2 Kit (Perkin Elmer Cat. #6760617M). The lysis buffer was diluted 5-fold with water before use. The plate was agitated on a shaker for 10 minutes after which 2 μL was transferred into a 384-well white proxiplate (Perkin Elmer Cat. #6008289). The SureFire assay reagent mix was prepared by mixing 60 parts Reaction Buffer, 10 parts Activation Buffer, 1 part Donor Beads, 1 part Acceptor Beads (Perkin Elmer Cat. #TGRES10K). 3.5 μL/well of this reagent mix was manually added to the proxiplate with a multichannel pipettor. Plates were spun down at 1000 rpm for 2 minutes, followed by light-protected incubation at room temperature for 2 hours. The plates were read on the Alpha-technology compatible Envision multilabel plate reader using AlphaScreen protocol according to manufacturer's specifications. The agonist effect of compounds was expressed as 100×(average sample−average blank)/(average total−average blank) where sample is the luminescence activity in the presence of test compound, blank is equal to the luminescence activity in the presence of DMSO control and the total is signal induced by 50 μM linolenic acid as reference compound. Activation data for the test compound over a range of concentrations was plotted as percentage activation of the test compound (100%=maximum response). After correcting for background, EC50 values were determined The EC50 is defined as the concentration of test compound which produces 50% of the maximal response and was quantified using the 4 parameter logistic equation to fit the data.
The human and mouse GPR120-mediated intracellular phosphorylated ERK assays were also established using CHO-K1 cells stably transfected with the short form of human or mouse GPR120 receptor. […]

Row | SMILES | EC50
1 | COC(CCC12CCC(c3cccc(Oc4ccccc4)c3)(CC1)OC2)CC(=O)O (stereo not drawn) [Example 33, 3-Methoxy-5-(1-(3-phenoxyphenyl)-2-oxabicyclo[2.2.2]octan-4-yl)pentanoic acid] | 1900 nM
2 | CC(C)Oc1cccc(C23CCC(CCOCC(=O)O)(CC2)CO3)c1 [Example 7, 2-(2-(1-(3-Isopropoxyphenyl)-2-oxabicyclo[2.2.2]octan-4-yl)ethoxy)acetic acid] | 7540 nM
3 | OCC(O)CCCC12CCC(c3cccc(Oc4ccccc4)c3)(CC1)OC2 (racemic) [Example 58, 5-(1-(3-Phenoxyphenyl)-2-oxabicyclo[2.2.2]octan-4-yl)pentane-1,2-diol] | 290 nM
4 | O=C(O)COCCC12CCC(c3cccc(Oc4cccnc4)c3)(CC1)CO2 [Example 104] | 7780 nM
5 | Cc1ccc(Oc2cc(C34CCC(CCOCC(=O)O)(CC3)CO4)ccc2F)cc1F [Example 89, 2-(2-(1-(4-fluoro-3-(3-fluoro-4-methylphenoxy)phenyl)-2-oxabicyclo [2.2.2]octan-4-yl)ethoxy) acetic acid] | 350 nM
6 | O=C(O)COCCC12CCC(c3cccc(Oc4ccccn4)c3)(CC1)CO2 [Example 109, 2-(2-(4-(3-(Pyridin-2-yloxy)phenyl)-2-oxabicyclo[2.2.2]octan-1-yl)ethoxy)acetic acid] | 5550 nM
7 | Cc1cc(Oc2cc(C34CCC(CCOCC(=O)O)(CC3)OC4)ccc2F)ccc1C#N [Example 114] | 2730 nM
8 | O=C(O)COCCC12CCC(c3cc(F)cc(Oc4ccccc4)c3)(CC1)OC2 [Example 23, 2-(2-(1-(3-Fluoro-5-phenoxyphenyl)-2-oxabicyclo[2.2.2]octan-4-yl)ethoxy)acetic acid] | 310 nM
9 | O=C(O)[C@@H]1C[C@H]1CCC12CCC(c3cccc(Oc4cccc(F)c4)c3)(CC1)OC2 (single isomer, unassigned) [Example 65, 2-(2-(1-(3-(3-Fluorophenoxy)phenyl)-2-oxabicyclo[2.2.2]octan-4 yl)ethyl)cyclopropane carboxylic acid] | 330 nM
10 | O=C(O)CCS(=O)(=O)CC12CCC(c3cccc(Oc4ccccc4)c3)(CC1)OC2 [Example 29, 3-((1-(3-Phenoxyphenyl)-2-oxabicyclo[2.2.2]octan-4-yl)methylsulfonyl)propanoic acid] | 1570 nM
11 | CS(=O)(=O)NC(=O)CCCCC12CCC(c3cccc(Oc4ccccc4)c3)(CC1)OC2 [Example 26, N-(Methylsulfonyl)-5-(1-(3-phenoxyphenyl)-2-oxabicyclo[2.2.2]octan-4-yl)pentanamide] | 170 nM
12 | O=C(O)COCCC12CCC(c3cccc(Oc4ccc(F)cc4)c3)(CC1)CO2 [Example 105] | 3440 nM
13 | COc1ccc(Oc2cccc(C34CCC(CC[C@@H]5C[C@H]5C(=O)O)(CC3)CO4)c2)cc1 [Example 71, (1R,2R)-2-(2-(1-(3-(4-methoxy-phenoxy)phenyl)-2-oxabicyclo[2.2.2]octan-4-yl)ethyl)cyclo-propane carboxylic acid] | 1170 nM
14 | Cc1cc(Oc2cccc(C34CCC(CCOCC(=O)O)(CC3)CO4)c2)ccc1F [Example 78, 2-(2-(1-(3-(4-fluoro-3-methylphenoxy)phenyl)-2-oxabicyclo[2.2.2]octan-4-yl)ethoxy)acetic acid] | 490 nM
15 | O=C(O)COCCC12CCC(c3cc(F)cc(OCC(F)(F)F)c3)(CC1)OC2 [Example 54, 2-(2-(1-(3-Fluoro-5-(2,2,2-trifluoroethoxy)phenyl)-2-oxabicyclo[2.2.2]octan-4-yl)ethoxy)acetic acid] | 3470 nM
16 | Cc1ccc(Oc2cc(C34CCC(CCOCC(=O)O)(CC3)OC4)ccc2F)cc1C [Example 113] | 860 nM
17 | Cc1ccc(Oc2cccc(C34CCC(CCOCC(=O)O)(CC3)OC4)c2)cc1F [Example 101] | 320 nM
18 | O=C(O)COCCCC12CCC(c3cccc(Oc4ccccc4)c3)(CC1)CO2 [Example 110, 2-(3-(4-(3-Phenoxyphenyl)-2-oxabicyclo[2.2.2]octan-1-yl)propoxy)acetic acid] | 490 nM
19 | O=C(O)C[C@H]1C[C@@H]1CC12CCC(c3cccc(Oc4ccccc4)c3)(CC1)OC2 (single isomer, unassigned) [Example 17] | 260 nM
20 | COc1cccc(Oc2cccc(C34CCC(CC[C@@H]5C[C@H]5C(=O)O)(CC3)CO4)c2)c1 (single isomer, unassigned) [Example 67, 2-(2-(1-(3-(3-Methoxyphenoxy)phenyl)-2-oxabicyclo[2.2.2]octan-4-yl)ethyl)cyclopropanecarboxylic acid] | 750 nM
21 | Cc1ccc(Oc2cc(F)cc(C34CCC(CCOCC(=O)O)(CC3)CO4)c2)cc1 [Example 83, 2-(2-(1-(3-fluoro-5-(p-tolyloxy)phenyl)-2-oxabicyclo[2.2.2]octan-4-yl)ethoxy)acetic acid] | 320 nM
22 | O=C(O)[C@@H]1C[C@H]1CCC12CCC(c3cccc(Oc4ccc(O)cc4)c3)(CC1)OC2 [Example 74, (1R,2R)-2-(2-(1-(3-(4-hydroxy-phenoxy)phenyl)-2-oxabicyclo[2.2.2]octan-4-yl)ethyl)cyclo-propanecarboxylic acid] | 2530 nM
23 | Cc1ccc(Oc2cc(F)cc(C34CCC(CCOCC(=O)NO)(CC3)CO4)c2)cc1F [Example 94, 2-(2-(1-(3-Fluoro-5-(3-fluoro-4-methylphenoxy)phenyl)-2-oxabicyclo[2.2.2]octan-4-yl)ethoxy)-N-hydroxyacetamide] | 1160 nM
24 | O=C(O)[C@H]1C[C@@H]1COCC12CCC(c3cccc(Oc4ccccc4)c3)(CC1)OC2 (single isomer, unassigned) [Example 99] | 340 nM
25 | O=C(O)COCCC12CCC(c3ccccc3Oc3ccccc3)(CC1)OC2 [Example 37, 2-(2-(1-(2-Phenoxyphenyl)-2-oxabicyclo[2.2.2]octan-4-yl)ethoxy)acetic acid] | 1140 nM
26 | Cc1nc(-c2cccc(C34CCC(CCOCC(=O)O)(CC3)CO4)c2)no1 [Example 48, 2-(2-(1-(3-(5-Methyl-1,2,4-oxadiazol-3-yl)phenyl)-2-oxabicyclo[2.2.2]octan-4-yl)ethoxy)acetic acid] | 6760 nM
27 | O=C(O)[C@@H]1C[C@H]1CCC12CCC(c3cccc(Oc4cc(F)cc(F)c4)c3)(CC1)OC2 [Example 72, (1R,2R)-2-(2-(1-(3-(3,5-difluorophenoxy)phenyl)-2-oxabicyclo[2.2.2]octan-4-yl)ethyl) cyclopropanecarboxylic acid] | 490 nM
28 | COc1cc(Oc2ccccc2)cc(C23CCC(CCOCC(=O)O)(CC2)CO3)c1 [Example 90, 2-(2-(1-(3-methoxy-5-phenoxyphenyl)-2-oxabicyclo[2.2.2]octan-4-yl)ethoxy)acetic acid] | 950 nM
29 | OCC(O)CCC12CCC(c3cccc(Oc4ccccc4)c3)(CC1)OC2 (stereo not drawn) [Example 56, 4-(1-(3-Phenoxyphenyl)-2-oxabicyclo[2.2.2]octan-4-yl)butane-1,2-diol] | 610 nM
30 | O=C(O)C1CC1CCCC12CCC(c3cccc(Oc4ccccc4)c3)(CC1)OC2 (stereo not drawn) [Example 120, 2-(3-(1-(3-Phenoxyphenyl)-2-oxabicyclo[2.2.2]octan-4-yl)propyl) cyclopropane carboxylic acid] | 2210 nM

— patent US8962660B2 (Bristol-Myers Squibb Company, priority 2013, dated 2015)
